The values that follow come from US20250340570A1, “COMPOSITIONS USEFUL FOR MODULATING SPLICING” (Skyhawk Therapeutics, Inc., priority 2022, published 2025).

The subject of assay [1] is ATXN3 transcripts containing exon 4. The assay can be described thus: ATXN3 quantitative splicing assay (qPCR, E4E5 transcripts containing exon 4). It is filed as cell-based. The note with it: Human neuroblastoma SK-N-MC cells, 24 h treatment, qPCR primers/probe E4E5. The procedure: Human neuroblastoma SK-N-MC cells were plated in 384-well plates at 20,000 cells/well. Twenty-four hours after plating, cells were treated with compounds for 24 h at appropriate concentrations ranging from 30 μM to 0.6 nM (0.3% DMSO). Treated cells were lysed in 15 μL of lysis buffer, and cDNA was synthesized using the Fast Advanced Cells-to-Ct kit. Two μL of each cDNA was used in qPCR reactions to confirm the exon 4 skipped transcripts of ATXN3. A second set of primers/probe E4E5 was used to detect the transcripts containing exon 4. The third set of primers/probe E8E9 was used to detect total gene level of ATXN3. The qPCR reactions were prepared in 384-well plates in 10.L volume, using TaqMan™ Fast Advanced Master Mix with primers and probes shown in the table below. Reactions were run in a Quant Studio 6 qPCR instrument with default settings.
The primers and probes are listed below in Table 5.
Background: Real-time PCR tracks product formation cycle by cycle.

The subject of the next assay is total ATXN3 protein. The experiment in a line: ATXN3 total protein assay (Mesoscale Discovery). The settings on record: Human neuroblastoma SK-N-MC cells, 48 hours incubation, MSD assay. It is filed as cell-based. The procedure:
Human neuroblastoma SK-N-MC cells were seeded at 10,000 cells/well in 384 well plates one day prior to compound treatment. The concentrations of compounds were tested at appropriate doses ranging from 30 µM to 0.6 nM. After incubation for 48 hours, the cells were lysed with 25.L of lysis buffer containing protease inhibitors, and total ATXN3 protein levels were assessed by Mesoscale Discovery (MSD) assay developed with one pair of and-ATXN3 antibodies. The capture and detect antibodies were raised in mouse and rabbit respectively. Anti-rabbit MSD-ST antibody was used for secondary antibody.
ATXN3 recombinant protein was used for standards. The readouts were captured with 35.L of MSD read buffer and multi-array 384-well high binding plates.

The term IC50 denotes the point on the concentration scale where inhibition reaches its midpoint. Take `Cc1csc2c(NCc3ccncc3)snc12` [Compound 1, [(4-pyridyl)methyl](8-methyl-3,6-dithia-2-azabicyclo[3.3.0]octa-1,4,7-trien-4-yl)amine]: the IC50 (in assay [1]; with total ATXN3 protein) was 10 to 40 µM each time.

As for `Cc1csc2c(NCc3ccccc3)snc12` [Compound 3, (benzyl)(8-methyl-3,6-dithia-2-azabicyclo[3.3.0]octa-1,4,7-trien-4-yl)amine], the IC50 (in assay [1]; in the assay with total ATXN3 protein) was 10 to 40 µM each time.

As for `Cc1csc2c(NCc3ccco3)snc12` [Compound 4, (furfuryl)(8-methyl-3,6-dithia-2-azabicyclo[3.3.0]octa-1,4,7-trien-4-yl)amine], the IC50 (in assay [1]; with total ATXN3 protein) was 10 to 40 µM in each case.

Take `Cc1c(C[C@H](C)N)sc2c(NCc3ccccc3)snc12` [Compound 5, 7-[(S)-2-aminopropyl]-4-benzylamino-8-methyl-3,6-dithia-2-azabicyclo[3.3.0]octa-1,4,7-triene]: the IC50 in assay [1] was 5 to 10 µM; in the assay with total ATXN3 protein, 0.501 to 5 µM.

In the case of `Cc1c(C[C@H](C)N)sc2c(NCc3ccco3)snc12` [Compound 6, 7-[(S)-2-aminopropyl]-4-(furfurylamino)-8-methyl-3,6-dithia-2-azabicyclo[3.3.0]octa-1,4,7-triene], the IC50 (in assay [1]; with total ATXN3 protein) was 0.501 to 5 µM each time.

As for `Cc1c(C[C@H](C)N)sc2c(NCc3cccs3)snc12` [Compound 7, 7-[(S)-2-aminopropyl]-8-methyl-4-thenylamino-3,6-dithia-2-azabicyclo[3.3.0]octa-1,4,7-triene], the IC50 (in assay [1]; with total ATXN3 protein) was 0.501 to 5 µM in each case.

On to `Cc1c(C[C@@H](N)CC2CC2)sc2c(NCc3cccs3)snc12` [Compound 8, 7-[(S)-2-amino-3-cyclopropylpropyl]-8-methyl-4-thenylamino-3,6-dithia-2-azabicyclo[3.3.0]octa-1,4,7-triene], for which the IC50 (in assay [1]; in the assay on total ATXN3 protein) was 5 to 10 µM throughout.

On to `Cc1c(C[C@@H](N)CC2CC2)sc2c(NCc3ccco3)snc12` [Compound 9, 7-[(S)-2-amino-3-cyclopropylpropyl]-4-(furfurylamino)-8-methyl-3,6-dithia-2-azabicyclo[3.3.0]octa-1,4,7-triene], for which the IC50 (in assay [1]; in the assay on total ATXN3 protein) was 0.501 to 5 µM in each case.

For `Cc1c(C[C@@H](N)CF)sc2c(NCc3cccs3)snc12` [Compound 10, 7-[(R)-2-amino-3-fluoropropyl]-8-methyl-4-thenylamino-3,6-dithia-2-azabicyclo[3.3.0]octa-1,4,7-triene], the IC50 (in assay [1]; in the assay on total ATXN3 protein) was 0.501 to 5 µM in each case.

As for `C[C@H](N)Cc1sc2c(NCc3cccs3)snc2c1Cl` [Compound 17, 7-[(S)-2-aminopropyl]-8-chloro-4-thenylamino-3,6-dithia-2-azabicyclo[3.3.0]octa-1,4,7-triene], the IC50 was in the range of 0.501 to 5 µM in assay [1] and 0.101 to 0.5 µM in the assay on total ATXN3 protein.

With `C[C@H](N)Cc1sc2c(NCc3cccs3)snc2c1Br` [Compound 18, 7-[(S)-2-aminopropyl]-8-bromo-4-thenylamino-3,6-dithia-2-azabicyclo[3.3.0]octa-1,4,7-triene], the IC50 (in assay [1]; with total ATXN3 protein) was 0.101 to 0.5 µM throughout.

For `C[C@H](N)Cc1sc2c(NCc3cccs3)snc2c1C#N` [Compound 19, 7-[(S)-2-aminopropyl]-4-thenylamino-3,6-dithia-2-azabicyclo[3.3.0]octa-1,4,7-triene-8-carbonitrile], the IC50 (in assay [1]; in the assay with total ATXN3 protein) was 0.501 to 5 µM throughout.

`C[C@H](N)Cc1sc2c(NCc3cccs3)snc2c1C1CC1` [Compound 20, 7-[(S)-2-aminopropyl]-8-cyclopropyl-4-thenylamino-3,6-dithia-2-azabicyclo[3.3.0]octa-1,4,7-triene]: the IC50 (in assay [1]; in the assay on total ATXN3 protein) was 10 to 40 µM in each case.

`C=Cc1c(C[C@H](C)N)sc2c(NCc3cccs3)snc12` [Compound 21, 5-[(2S)-2-aminopropyl]-6-ethenyl-N-(thiophen-2-ylmethyl) thieno[3,2-c][1,2]thiazol-3-amine]: the IC50 (in assay [1]; with total ATXN3 protein) was 10 to 40 µM throughout.

As for `C[C@H](N)Cc1sc2c(NCc3ccco3)snc2c1Cl` [Compound 23, 7-[(S)-2-aminopropyl]-8-chloro-4-(furfurylamino)-3,6-dithia-2-azabicyclo[3.3.0]octa-1,4,7-triene], the IC50 (in assay [1]; with total ATXN3 protein) was 0.101 to 0.5 µM throughout.

`C[C@H](N)Cc1sc2c(NCc3ccco3)snc2c1Br` [Compound 24, 7-[(S)-2-aminopropyl]-8-bromo-4-(furfurylamino)-3,6-dithia-2-azabicyclo[3.3.0]octa-1,4,7-triene]: the IC50 (in assay [1]; in the assay with total ATXN3 protein) was 0.101 to 0.5 µM in each case.

For `C[C@H](N)Cc1sc2c(NCc3ccco3)snc2c1O` [Compound 25, 7-[(S)-2-aminopropyl]-4-(furfurylamino)-3,6-dithia-2-azabicyclo[3.3.0]octa-1,4,7-trien-8-ol], the IC50 (in assay [1]; in the assay with total ATXN3 protein) was 10 to 40 µM each time.

As to `COc1c(C[C@H](C)N)sc2c(NCc3ccco3)snc12` [Compound 26, 5-[(2S)-2-aminopropyl]-N-(furan-2-ylmethyl)-6-methoxythieno[3,2-c][1,2]thiazol-3-amine], the IC50 (in assay [1]; in the assay with total ATXN3 protein) was 5 to 10 µM each time.

As to `C[C@H](N)Cc1sc2c(NCc3cccs3)snc2c1O` [Compound 27, 7-[(S)-2-aminopropyl]-4-thenylamino-3,6-dithia-2-azabicyclo[3.3.0]octa-1,4,7-trien-8-ol], the IC50 (in assay [1]; in the assay with total ATXN3 protein) was 10 to 40 µM each time.

In the case of `COc1c(C[C@H](C)N)sc2c(NCc3cccs3)snc12` [Compound 28, 7-[(S)-2-aminopropyl]-8-methoxy-4-thenylamino-3,6-dithia-2-azabicyclo[3.3.0]octa-1,4,7-triene], the IC50 in assay [1] lay within 5 to 10 µM; in the assay on total ATXN3 protein, 10 to 40 µM.

With `C[C@H](N)Cc1sc2c(NCc3cccs3)snc2c1F` [Compound 30, 7-[(S)-2-aminopropyl]-8-fluoro-4-thenylamino-3,6-dithia-2-azabicyclo[3.3.0]octa-1,4,7-triene], the IC50 lay in the range of 5 to 10 µM in assay [1] and 10 to 40 µM with total ATXN3 protein.

On to `C[C@H](N)Cc1sc2c(NCc3ccco3)snc2c1C1CC1` [Compound 31, 7-[(S)-2-aminopropyl]-8-cyclopropyl-4-(furfurylamino)-3,6-dithia-2-azabicyclo[3.3.0]octa-1,4,7-triene], for which the IC50 (in assay [1]; in the assay with total ATXN3 protein) was 5 to 10 µM throughout.

As for `C[C@H](N)Cc1sc2c(NCc3cccs3)snc2c1C(F)(F)F` [Compound 35, 7-[(S)-2-aminopropyl]-4-thenylamino-8-(trifluoromethyl)-3,6-dithia-2-azabicyclo[3.3.0]octa-1,4,7-triene], the IC50 (in assay [1]; in the assay with total ATXN3 protein) was 0.501 to 5 µM throughout.

Consider `Cc1c(C[C@@H](N)CC(F)(F)F)sc2c(NCc3cccs3)snc12` [Compound 36, 7-[(S)-2-amino-4,4,4-trifluorobutyl]-8-methyl-4-thenylamino-3,6-dithia-2-azabicyclo[3.3.0]octa-1,4,7-triene], for which the IC50 (in assay [1]; in the assay with total ATXN3 protein) was 0.501 to 5 µM in each case.

Take `Cc1c(C[C@@H](N)CO)sc2c(NCc3cccs3)snc12` [Compound 37, (R)-2-amino-3-(8-methyl-4-thenylamino-3,6-dithia-2-azabicyclo[3.3.0]octa-1,4,7-trien-7-yl)-1-propanol]: the IC50 (in assay [1]; in the assay with total ATXN3 protein) was 0.501 to 5 µM throughout.

For `N[C@H](Cc1sc2c(NCc3cccs3)snc2c1Cl)CC(F)(F)F` [Compound 38, 7-[(S)-2-amino-4,4,4-trifluorobutyl]-8-chloro-4-thenylamino-3,6-dithia-2-azabicyclo[3.3.0]octa-1,4,7-triene], the IC50 (in assay [1]; in the assay on total ATXN3 protein) was 0.501 to 5 µM each time.

Take `N[C@H](Cc1sc2c(NCc3cccs3)snc2c1Br)CC(F)(F)F` [Compound 39, 7-[(S)-2-amino-4,4,4-trifluorobutyl]-8-bromo-4-thenylamino-3,6-dithia-2-azabicyclo[3.3.0]octa-1,4,7-triene]: the IC50 (in assay [1]; in the assay on total ATXN3 protein) was 0.501 to 5 µM in each case.

`N[C@H](Cc1sc2c(NCc3ccco3)snc2c1Cl)CC(F)(F)F` [Compound 40, 7-[(S)-2-amino-4,4,4-trifluorobutyl]-8-chloro-4-(furfurylamino)-3,6-dithia-2-azabicyclo[3.3.0]octa-1,4,7-triene]: the IC50 (in assay [1]; in the assay on total ATXN3 protein) was 0.501 to 5 µM throughout.

As for `N[C@H](Cc1sc2c(NCc3ccco3)snc2c1Br)CC(F)(F)F` [Compound 41, 7-[(S)-2-amino-4,4,4-trifluorobutyl]-8-bromo-4-(furfurylamino)-3,6-dithia-2-azabicyclo[3.3.0]octa-1,4,7-triene], the IC50 (in assay [1]; in the assay with total ATXN3 protein) was 0.501 to 5 µM in each case.

In the case of `N[C@H](Cc1sc2c(NCc3cccs3)snc2c1Cl)C(F)F` [Compound 42, 7-[(R)-2-amino-3,3-difluoropropyl]-8-chloro-4-thenylamino-3,6-dithia-2-azabicyclo[3.3.0]octa-1,4,7-triene], the IC50 (in assay [1]; with total ATXN3 protein) was 0.501 to 5 µM throughout.
